# Data as given in the Deep4Chem optical property database.
# Test: solvent given as SMILES
smiles,measurement,setting,value
CCOC(=O)c1c2c3c(cccc3c3cc4c(cc13)[Si](C)(C)O[Si]4(C)C)N(C)C2=O,absorption maximum,in CC#N,376 nm
CN1c2cc3nc4cc(F)c(F)cc4nc3cc2N(C)C1(C)C,absorption maximum,in CCO,457 nm
CC(C)(C)c1ccc2c(c1)c1cc(C(C)(C)C)ccc1n2-c1ccc(S(=O)(=O)c2ccc(-n3c4ccc(C(C)(C)C)cc4c4cc(C(C)(C)C)ccc43)cn2)nc1,absorption maximum,in Cc1ccccc1,365.77 nm
COc1ccc2nc(/N=N/c3ccc(N(C)C)cc3)sc2c1,absorption maximum,in CC#N,506 nm
same,absorption maximum,in ClCCl,506 nm
[O-][n+]1c(-c2ccc(Br)cc2)cc(N2CCOCC2)nc1/C=C/c1ccccc1,absorption maximum,in ClCCl,445 nm
Fc1ccc2c(c1)sc1nc(-c3ccccc3)sc12,absorption maximum,in CS(C)=O,330 nm
c1ccc2c(c1)-c1ccccc1C21c2ccccc2-c2cnccc21,absorption maximum,in CC1CCCO1,305 nm
CC(C)[Si]1(C(C)C)c2cc(C=C(C#N)C#N)ccc2-c2ccc(N(C)C)cc21,absorption maximum,in C1CCCCC1,480 nm
same,absorption maximum,in CC#N,475 nm
same,absorption maximum,in CCO,478 nm
same,absorption maximum,in CCOCC,469 nm
same,absorption maximum,in CS(C)=O,488 nm
same,absorption maximum,in ClCCl,489 nm
same,absorption maximum,in c1ccccc1,480 nm
CCN=C=S,absorption maximum,in CCCCCC,250 nm
CCCCC(CC)CN1C(=O)c2cccc3c(C#Cc4ccc(N(c5ccccc5)c5ccc(C#Cc6ccc7c8c(cccc68)C(=O)N(CC(CC)CCCC)C7=O)cc5)cc4)ccc(c23)C1=O (stereo unspecified),absorption maximum,in C1CCCCC1,453 nm
same,absorption maximum,in C1CCOC1,451 nm
same,absorption maximum,in CC#N,456 nm
same,absorption maximum,in Cc1ccccc1,452 nm
same,absorption maximum,in ClC(Cl)Cl,466 nm
CCCCCCCCCCCCCCCCN(CCCCCCCCCCCCCCCC)c1ccc(/C=C/c2cc[n+](Cc3cc(C[n+]4ccc(/C=C/c5ccc(N(CCCCCCCCCCCCCCCC)CCCCCCCCCCCCCCCC)cc5)cc4)cc(C[n+]4ccc(/C=C/c5ccc(N(CCCCCCCCCCCCCCCC)CCCCCCCCCCCCCCCC)cc5)cc4)c3)cc2)cc1,absorption maximum,in C1COCCO1,482 nm
same,absorption maximum,in CC(C)O,506 nm
same,absorption maximum,in CCCCCC,481 nm
same,absorption maximum,in CCCCCCCCO,498 nm
same,absorption maximum,in CCCCO,507 nm
same,absorption maximum,in CCCO,508 nm
same,absorption maximum,in CCO,508 nm
same,absorption maximum,in CO,509 nm
same,absorption maximum,in CS(C)=O,486 nm
same,absorption maximum,in Cc1ccc(C)cc1,483 nm
same,absorption maximum,in Cc1ccccc1,483 nm
same,absorption maximum,in ClC(Cl)Cl,514 nm
same,absorption maximum,in ClCCl,516 nm
same,absorption maximum,in c1ccccc1,484 nm
COc1ccc2cc(/C=C/c3ccccc3)c(=O)oc2c1,absorption maximum,in CC#N,366 nm
N#CC(C#N)=Cc1ccc2c(c1)[nH]c1c3ccccc3ccc21,absorption maximum,in ClCCl,436 nm
CCCCCCOc1ccc(C#Cc2ccc(C#CC#Cc3ccc(C#Cc4ccc(OCCCCCC)c(OCCCCCC)c4)c4nsnc34)c3nsnc23)cc1OCCCCCC,absorption maximum,in CN(C)C=O,468 nm
same,absorption maximum,in COc1ccccc1,472 nm
same,absorption maximum,in Cc1ccccc1,470 nm
same,absorption maximum,in ClC(Cl)Cl,472 nm
same,absorption maximum,in ClCCCl,471 nm
same,absorption maximum,in ClCCl,469 nm
O=C1/C(=C2\Nc3cc4ccc5cccc6ccc(c3C2=O)c4c56)Nc2cc3ccc4cccc5ccc(c21)c3c45,absorption maximum,in C1CCOC1,687 nm
C(=C(c1ccccc1)c1ccccc1)c1ccc(-c2ccc(C=C(c3ccccc3)c3ccccc3)cc2)cc1,absorption maximum,in C1CCOC1,351 nm
CCc1c(C)[nH]c(C2=[N+]3C(=Cc4c(C)c(CC)c(C)n4[B-]3(F)F)c3ccccc32)c1C,absorption maximum,in C1CCOC1,629 nm
same,absorption maximum,in CC#N,620 nm
same,absorption maximum,in CCCCCC,629 nm
same,absorption maximum,in CO,623 nm
same,absorption maximum,in Cc1ccccc1,636 nm
same,absorption maximum,in ClCCl,629 nm
CCCCn1c2ccc3ccc4ccccc4c3c2c2c3c(ccc4ccccc43)ccc21,absorption maximum,in ClCCl,337 nm
Cc1cc(C)c(C2=C3C=CC(c4csc5ccccc45)=[N+]3[B-](F)(F)n3c2ccc3-c2csc3ccccc23)c(C)c1,absorption maximum,in ClC(Cl)Cl,581 nm
Cc1cc2nc3c(=O)[nH]c(=O)n(C)c3nc2cc1C,absorption maximum,in CC#N,379 nm
C(=C\c1c[nH]c2ccccc12)/c1cc[n+]2ccc(/C=C/c3c[nH]c4ccccc34)cc2c1,absorption maximum,in CO,489 nm
CCOC(=O)c1c(-c2cc3ccc(OC)cc3oc2=O)nn(-c2cccc(C)c2)c1C(=O)OCC,absorption maximum,in ClCCl,337 nm
c1ccn(-c2ccc(-c3cc(-c4ccc(-n5cccc5)cc4)cc(-c4ccc(-n5cccc5)cc4)c3)cc2)c1,absorption maximum,in ClCCl,388.72 nm
C[N+]1=C(/C=C/C=C2/N(CCC[N+](C)(C)C)c3ccc(Br)cc3C2(C)C)C(C)(C)c2ccccc21,absorption maximum,in CS(C)=O,556 nm
C(=C\c1cc[n+](Cc2ccccc2)cc1)/c1cc[n+](Cc2ccccc2)cc1,absorption maximum,in CC#N,324 nm
CN(C)c1ccc(C2=CC3=C(c4ccc(C=C(C#N)C#N)cc4)[C@H]4c5ccccc5[C@]3(S2)c2ccccc24)cc1,absorption maximum,in ClCCl,543 nm
CC(C)(C)c1ccc(-c2nc(-c3ccc(C(C)(C)C)cc3)nc(-c3ccc(-n4c5ccccc5c5c6oc7ccccc7c6ccc54)c(C#N)c3)n2)cc1,absorption maximum,in C1CCOC1,379.46 nm
